Data published in ChEMBL document CHEMBL1201862, “PubChem BioAssay data set” (2004).
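1) Cells in 96-well plates. 2) Compound, 48 h, 5 concentrations. 3) Linear interpolation between surrounding doses. 4) Unreached endpoint = highest concentration. Abbreviation: GI50, concentration required for 50% inhibition of growth.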 The source made the active and inactive calls. Cut-off read from the data, not from the text of the source: active = GI50 up to about 1.1 µM and inactive = higher.

Columns and labels:
Experiment in all cases: NCI tumour cell line growth inhibition, 48 h
786-0 = tested on: 786-0
A498 = tested on: A498
A549 = tested on: A549
ACHN = tested on: ACHN
BT-549 = tested on: BT-549
CAKI-1 = tested on: CAKI-1
CCRF-CEM = tested on: CCRF-CEM
COLO 205 = tested on: COLO 205
DU-145 = tested on: DU-145
EKVX = tested on: EKVX
HCC 2998 = tested on: HCC 2998
HCT-116 = tested on: HCT-116
HCT-15 = tested on: HCT-15
HL-60 = tested on: HL-60
HOP-92 = tested on: HOP-92
HT-29 = tested on: HT-29
Hs-578T = tested on: Hs-578T
IGROV-1 = tested on: IGROV-1
K562 = tested on: K562
KM12 = tested on: KM12
LOX IMVI = tested on: LOX IMVI
M14 = tested on: M14
MCF7 = tested on: MCF7
MDA-MB-231 = tested on: MDA-MB-231
MDA-MB-435 = tested on: MDA-MB-435
MDA-N = tested on: MDA-N
MOLT-4 = tested on: MOLT-4
Malme-3M = tested on: Malme-3M
NCI-H226 = tested on: NCI-H226
NCI-H23 = tested on: NCI-H23
NCI-H460 = tested on: NCI-H460
NCI-H522 = tested on: NCI-H522
NCI/ADR-RES = tested on: NCI/ADR-RES
OVCAR-4 = tested on: OVCAR-4
OVCAR-5 = tested on: OVCAR-5
OVCAR-8 = tested on: OVCAR-8
PC-3 = tested on: PC-3
RPMI-8226 = tested on: RPMI-8226
RXF 393 = tested on: RXF 393
SF-268 = tested on: SF-268
SF-539 = tested on: SF-539
SK-MEL-28 = tested on: SK-MEL-28
SK-MEL-2 = tested on: SK-MEL-2
SK-MEL-5 = tested on: SK-MEL-5
SN12C = tested on: SN12C
SNB-19 = tested on: SNB-19
SNB-75 = tested on: SNB-75
SR = tested on: SR
SW-620 = tested on: SW-620
T47D = tested on: T47D
TK-10 = tested on: TK-10
U-251 = tested on: U-251
UACC-257 = tested on: UACC-257
UACC-62 = tested on: UACC-62
UO-31 = tested on: UO-31
HOP-62 = tested on: HOP-62
OVCAR-3 = tested on: OVCAR-3
SF-295 = tested on: SF-295
SK-OV-3 = tested on: SK-OV-3

In the case of `Cc1ccc2c(c1)C=CC(C#N)N2C(=O)Oc1ccccc1` (stereo unspecified), the GI50 (786-0) is reported as 43.7 µM (inactive), the GI50 (A498) is reported as 20.6 µM (inactive) and the GI50 (A549) is reported as 29.5 µM (inactive). For the same compound, the GI50 (ACHN) was 27 µM (inactive), the GI50 (BT-549) was 22.8 µM (inactive) and the GI50 (CAKI-1) was 57.4 µM (inactive). For the same compound, the GI50 (CCRF-CEM) was 17.2 µM (inactive), the GI50 (COLO 205) was 25.9 µM (inactive) and the GI50 (DU-145) was 17.9 µM (inactive). For the same compound, the GI50 (EKVX) was 18.1 µM (inactive), the GI50 (HCC 2998) was 16.6 µM (inactive) and the GI50 (HCT-116) was 37.9 µM (inactive). For the same compound, the GI50 (HCT-15) was 21.1 µM, the GI50 (HL-60) was 18.9 µM (inactive) and the GI50 (HOP-92) was 30.2 µM (inactive). The GI50 (HT-29) was 18.7 µM (inactive), the GI50 (Hs-578T) was 41.6 µM (inactive) and the GI50 (IGROV-1) was 36 µM (inactive). The GI50 (K562) was 23.7 µM (inactive), the GI50 (KM12) was 17.1 µM (inactive) and the GI50 (LOX IMVI) was 20.6 µM (inactive). For the same compound, the GI50 (M14) was 40.8 µM (inactive), the GI50 (MCF7) was 19.7 µM (inactive) and the GI50 (MDA-MB-231) was 38.9 µM (inactive). The GI50 (MDA-MB-435) was 14.5 µM (inactive), the GI50 (MDA-N) was 29 µM (inactive) and the GI50 (MOLT-4) was 19.6 µM (inactive). The GI50 (Malme-3M) was 33 µM (inactive), the GI50 (NCI-H226) was 31 µM (inactive) and the GI50 (NCI-H23) was 19.5 µM (inactive). For the same compound, the GI50 (NCI-H460) was 29.6 µM (inactive), the GI50 (NCI-H522) was 16.3 µM (inactive) and the GI50 (NCI/ADR-RES) was 20.2 µM (inactive). The GI50 (OVCAR-4) was 24.7 µM (inactive), the GI50 (OVCAR-5) was 61.4 µM (inactive) and the GI50 (OVCAR-8) was 17.4 µM (inactive). The GI50 (PC-3) was 26.3 µM (inactive), the GI50 (RPMI-8226) was 17.9 µM (inactive) and the GI50 (RXF 393) was 37.7 µM (inactive). The GI50 (SF-268) was 29.9 µM (inactive), the GI50 (SF-539) was 60.7 µM (inactive) and the GI50 (SK-MEL-28) was 77.8 µM (inactive). For the same compound, the GI50 (SK-MEL-2) was 22.7 µM (inactive), the GI50 (SK-MEL-5) was 24.3 µM (inactive) and the GI50 (SN12C) was 35.8 µM (inactive). For the same compound, the GI50 (SNB-19) was 31.8 µM (inactive), the GI50 (SNB-75) was 40.6 µM (inactive) and the GI50 (SR) was 19.4 µM (inactive). The GI50 (SW-620) was 30.5 µM (inactive), the GI50 (T47D) was 20.8 µM (inactive) and the GI50 (TK-10) was 31 µM (inactive). The GI50 (U-251) was 23.7 µM (inactive), the GI50 (UACC-257) was 39.8 µM (inactive) and the GI50 (UACC-62) was 31.4 µM (inactive). The GI50 (UO-31) was 27.7 µM (inactive).

`COc1ccc(/N=C2/C(=N/c3ccc(OC)cc3)N(c3ccccc3)C(=S)N2N=C=C2Sc3ccccc3N2C)cc1` was tested, and the GI50 (786-0) was > 100 µM (inactive), the GI50 (A549) was > 100 µM (inactive) and the GI50 (ACHN) was > 100 µM (inactive). For the same compound, the GI50 (BT-549) was > 100 µM (inactive), the GI50 (CAKI-1) was > 100 µM (inactive) and the GI50 (COLO 205) was > 100 µM (inactive). The GI50 (DU-145) was > 100 µM (inactive), the GI50 (EKVX) was > 100 µM (inactive) and the GI50 (HCC 2998) was > 100 µM (inactive). The GI50 (HCT-116) was 88.1 µM (inactive), the GI50 (HCT-15) was greater than 100 µM and the GI50 (HOP-62) was 52.5 µM (inactive). For the same compound, the GI50 (HOP-92) was 47.3 µM (inactive), the GI50 (HT-29) was > 100 µM (inactive) and the GI50 (Hs-578T) was > 100 µM (inactive). The GI50 (IGROV-1) was > 100 µM (inactive), the GI50 (K562) was > 100 µM (inactive) and the GI50 (KM12) was > 100 µM (inactive). The GI50 (M14) was 57.4 µM (inactive), the GI50 (MCF7) was > 100 µM (inactive) and the GI50 (MDA-MB-231) was 25.5 µM (inactive). For the same compound, the GI50 (MDA-MB-435) was > 100 µM (inactive), the GI50 (MDA-N) was > 100 µM (inactive) and the GI50 (MOLT-4) was > 100 µM (inactive). The GI50 (Malme-3M) was > 100 µM (inactive), the GI50 (NCI-H226) was > 100 µM (inactive) and the GI50 (NCI-H23) was 9.27 µM (inactive). The GI50 (NCI-H460) was > 100 µM (inactive), the GI50 (NCI-H522) was > 100 µM (inactive) and the GI50 (NCI/ADR-RES) was > 100 µM (inactive). The GI50 (OVCAR-3) was > 100 µM (inactive), the GI50 (OVCAR-5) was > 100 µM (inactive) and the GI50 (OVCAR-8) was > 100 µM (inactive). The GI50 (PC-3) was > 100 µM (inactive), the GI50 (RPMI-8226) was > 100 µM (inactive) and the GI50 (RXF 393) was 3.75 µM (inactive). The GI50 (SF-268) was > 100 µM (inactive), the GI50 (SF-295) was > 100 µM (inactive) and the GI50 (SF-539) was > 100 µM (inactive). The GI50 (SK-MEL-28) was > 100 µM (inactive), the GI50 (SK-MEL-2) was > 100 µM (inactive) and the GI50 (SK-MEL-5) was > 100 µM (inactive). For the same compound, the GI50 (SK-OV-3) was > 100 µM (inactive), the GI50 (SN12C) was > 100 µM (inactive) and the GI50 (SNB-19) was > 100 µM (inactive). For the same compound, the GI50 (SR) was > 100 µM (inactive), the GI50 (SW-620) was > 100 µM (inactive) and the GI50 (T47D) was > 100 µM (inactive). The GI50 (TK-10) was 32.1 µM (inactive), the GI50 (U-251) was 88.7 µM (inactive) and the GI50 (UACC-257) was > 100 µM (inactive). The GI50 (UACC-62) was > 100 µM (inactive) and the GI50 (UO-31) was > 100 µM (inactive).

With `N#C/C(=C/N1C(=O)/C(=C/c2ccc([N+](=O)[O-])cc2)SC1=S)c1nc2ccccc2s1` the GI50 (786-0) was 25.4 µM (inactive), the GI50 (A498) was 12.1 µM (inactive) and the GI50 (A549) was 25.6 µM (inactive). The GI50 (ACHN) was 17.3 µM (inactive), the GI50 (BT-549) was 19.4 µM (inactive) and the GI50 (CAKI-1) was 30.8 µM (inactive). For the same compound, the GI50 (CCRF-CEM) was 24.5 µM (inactive), the GI50 (COLO 205) was 14.5 µM (inactive) and the GI50 (DU-145) was 31.8 µM (inactive). The GI50 (EKVX) was 18.4 µM (inactive), the GI50 (HCC 2998) was 14.2 µM (inactive) and the GI50 (HCT-116) was 14.3 µM (inactive). For the same compound, the GI50 (HCT-15) was 21.6 µM, the GI50 (HL-60) was 17.5 µM (inactive) and the GI50 (HOP-62) was 0.406 µM (active). The GI50 (HOP-92) was 17.5 µM (inactive), the GI50 (HT-29) was 31.2 µM (inactive) and the GI50 (Hs-578T) was 29.6 µM (inactive). For the same compound, the GI50 (IGROV-1) was 12.3 µM (inactive), the GI50 (K562) was 17.5 µM (inactive) and the GI50 (KM12) was 28.2 µM (inactive). For the same compound, the GI50 (LOX IMVI) was 26.4 µM (inactive), the GI50 (M14) was 27.8 µM (inactive) and the GI50 (MCF7) was 15.6 µM (inactive). The GI50 (MDA-MB-231) was 12.8 µM (inactive), the GI50 (MDA-MB-435) was 29.5 µM (inactive) and the GI50 (MDA-N) was 24.4 µM (inactive). The GI50 (Malme-3M) was 25.8 µM (inactive), the GI50 (NCI-H226) was 12.2 µM (inactive) and the GI50 (NCI-H23) was 20.7 µM (inactive). The GI50 (NCI-H460) was 14.8 µM (inactive), the GI50 (NCI-H522) was 12.6 µM (inactive) and the GI50 (NCI/ADR-RES) was 32.7 µM (inactive). For the same compound, the GI50 (OVCAR-3) was 3.48 µM (inactive), the GI50 (OVCAR-4) was 29.7 µM (inactive) and the GI50 (OVCAR-5) was 29.1 µM (inactive). For the same compound, the GI50 (OVCAR-8) was 37.9 µM (inactive), the GI50 (PC-3) was 13.8 µM (inactive) and the GI50 (RPMI-8226) was 11.1 µM (inactive). The GI50 (RXF 393) was 19.3 µM (inactive), the GI50 (SF-268) was 24.7 µM (inactive) and the GI50 (SF-295) was 11.3 µM (inactive). The GI50 (SF-539) was 28.9 µM (inactive), the GI50 (SK-MEL-28) was 30.1 µM (inactive) and the GI50 (SK-MEL-2) was 16.7 µM (inactive). The GI50 (SK-MEL-5) was 11.4 µM (inactive), the GI50 (SK-OV-3) was 15.9 µM (inactive) and the GI50 (SN12C) was 23.5 µM (inactive). For the same compound, the GI50 (SNB-19) was 29.6 µM (inactive), the GI50 (SNB-75) was 25.1 µM (inactive) and the GI50 (SR) was 25.6 µM (inactive). For the same compound, the GI50 (SW-620) was 34.8 µM (inactive), the GI50 (T47D) was 8.85 µM (inactive) and the GI50 (TK-10) was 26.9 µM (inactive). For the same compound, the GI50 (U-251) was 15.2 µM (inactive), the GI50 (UACC-257) was 14.2 µM (inactive) and the GI50 (UACC-62) was 4.42 µM (inactive). For the same compound, the GI50 (UO-31) was 16.1 µM (inactive).
